# Laboratory results reported in ChEMBL document CHEMBL4840343, “Fragment-based lead discovery of indazole-based compounds as AXL kinase inhibitors” (Bioorg Med Chem, 2021).
# Activity calls are given as the source filed them. The rule behind the calls is not given here.
# How the values were obtained:
# [1] = biological target: T1, Tyrosine-protein kinase receptor UFO (Homo sapiens, UniProt P30530); assay: Inhibition of Axl (unknown origin) using 5'FAM labeled KKKKEEIYFFF-NH2 peptide as substrate incubated for 1.5 hrs
# T1 sequence (P30530 whole entry): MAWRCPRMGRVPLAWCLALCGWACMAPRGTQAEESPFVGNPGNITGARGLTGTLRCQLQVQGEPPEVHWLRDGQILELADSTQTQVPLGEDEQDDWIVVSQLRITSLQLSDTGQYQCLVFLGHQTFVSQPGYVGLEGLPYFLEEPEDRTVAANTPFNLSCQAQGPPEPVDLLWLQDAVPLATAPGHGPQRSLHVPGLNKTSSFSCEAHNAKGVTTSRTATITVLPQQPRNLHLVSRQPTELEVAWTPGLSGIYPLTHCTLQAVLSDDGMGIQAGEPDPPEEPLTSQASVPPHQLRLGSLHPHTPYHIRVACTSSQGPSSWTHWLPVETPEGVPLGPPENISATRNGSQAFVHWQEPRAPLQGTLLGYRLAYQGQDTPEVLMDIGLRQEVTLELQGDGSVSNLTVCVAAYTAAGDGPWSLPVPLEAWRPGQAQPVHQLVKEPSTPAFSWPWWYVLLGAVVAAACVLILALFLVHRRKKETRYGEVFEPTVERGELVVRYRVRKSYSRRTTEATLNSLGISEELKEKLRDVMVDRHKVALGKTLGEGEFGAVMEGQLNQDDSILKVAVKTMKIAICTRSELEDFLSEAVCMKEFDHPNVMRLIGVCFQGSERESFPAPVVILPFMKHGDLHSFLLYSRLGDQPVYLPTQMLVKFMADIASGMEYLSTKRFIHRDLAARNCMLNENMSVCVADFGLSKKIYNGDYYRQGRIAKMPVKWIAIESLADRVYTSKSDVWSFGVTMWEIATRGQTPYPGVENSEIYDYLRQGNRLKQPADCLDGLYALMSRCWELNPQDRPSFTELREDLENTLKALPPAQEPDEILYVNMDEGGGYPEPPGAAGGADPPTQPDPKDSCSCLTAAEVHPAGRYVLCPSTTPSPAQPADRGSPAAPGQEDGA
# [2] = biological target: T1, Tyrosine-protein kinase receptor UFO; assay: Displacement of K5 tracer from Axl (unknown origin) expressed in human HEK293 cells cotransfected with NanoLuc measured after 2 hrs by NanoBRET assay; format: cell-based
# SK-OV-3 = assay: Antiproliferative activity against human SK-OV-3 cells as reduction in cell growth measured after 72 hrs by Celltiter-Glo luminescent assay; format: functional
# [3] = Distribution coefficient, logD of compound at pH 7.4; format: physicochemical; details: octanol/water
# [4] = Intrinsic clearance in mouse liver microsomes; format: ADME, Microsome; details: read-out: CLH
# [5] = Intrinsic clearance in human liver microsomes; format: ADME, Microsome; details: read-out: CLH
# [6] = Thermodynamic solubility of compound at pH 7.4; format: physicochemical; details: buffer, read-out: Therm_solubility
# [7] = Permeability across apical to basolateral side in human Caco-2 cells; format: ADME, cell-based; details: read-out: permeability
# [8] = Permeability across basolateral to apical side in human Caco-2 cells; format: ADME, cell-based; details: read-out: permeability
# [9] = Efflux ratio of permeability in human Caco-2 cells; format: ADME, cell-based
# [10] = AUC (0 to infinity) in mouse at 5 mg/kg, po; format: ADME, organism-based; parameters: route oral, time infinity, dose 5 mg/kg; details: in vivo
# [11] = Half life in mouse at 5 mg/kg, po; format: ADME, organism-based; details: in vivo
# [12] = Tmax in mouse at 5 mg/kg, po; format: ADME, organism-based; details: in vivo
# [13] = Cmax in mouse at 5 mg/kg, po; format: ADME, organism-based; parameters: route oral, dose 5 mg/kg; details: in vivo
# [14] = biological target: Tyrosine-protein kinase receptor UFO (Homo sapiens) (UniProt P30530); assay: Inhibition of Axl in human SK-OV-3 cells assessed as reduction in phosphorylated Axl level measured after 1 hr by Western blot analysis; format: cell-based; details: dose 1-10 µM
# [15] = biological target: Tyrosine-protein kinase receptor UFO (Homo sapiens) (UniProt P30530); assay: Inhibition of Axl in human SK-OV-3 cells assessed as reduction in phosphorylated ERK1/2 level at 1 to 10 uM measured after 1 hr by Western blot analysis; format: cell-based; details: dose 1-10 µM
smiles,measurement,setting,value
Nc1ccc2c(Br)n[nH]c2c1,IC50,[1],> 770 µM
Nc1cccc(-c2cccnc2)c1,IC50,[1],363 µM
CSc1cc(-c2ccc(F)cc2)n[nH]1,IC50,[1],331 µM
O=C(O)c1ccc2c(Br)n[nH]c2c1,IC50,[1],> 770 µM
N#Cc1ccccc1-n1cc(-c2n[nH]c3cc(Cl)c(N[C@@H]4CCNC4)cc23)cn1,IC50,[1],3.2 µM
same,IC50,[2],3.54 µM
same,GI50,SK-OV-3,2.78 µM
Clc1cc2[nH]nc(-c3cnn(-c4ccccc4)c3)c2cc1N[C@@H]1CCNC1,IC50,[1],1.7 µM
same,IC50,[2],0.668 µM
Brc1cnn2cccnc12,IC50,[1],330 µM
FCCn1cc(-c2n[nH]c3cc(Cl)c(N[C@@H]4CCNC4)cc23)cn1,IC50,[1],5 µM
same,IC50,[2],3.46 µM
Cn1cc(-c2n[nH]c3ccc(NC4CCNC4)cc23)cn1 (stereo not given),IC50,[1],132 µM
Cn1cc(-c2n[nH]c3ccc(-c4ccccc4)cc23)cn1,IC50,[1],0.62 µM
Cn1cc(-c2n[nH]c3ccc(N)cc23)cn1,IC50,[1],8.91 µM
O=C(O)c1ccc2cn[nH]c2c1,IC50,[1],> 770 µM
Cn1cc(-c2n[nH]c3cc(N)ccc23)cn1,IC50,[1],28.8 µM
Cn1cc(-c2n[nH]c3ccc(Br)cc23)cn1,IC50,[1],1.54 µM
FC(F)(F)n1cc(-c2n[nH]c3cc(Cl)c(N[C@@H]4CCN(C5COC5)C4)cc23)cn1,IC50,[1],466 µM
same,IC50,[2],26.3 µM
same,logD,[3],3.66
same,microsomal CLint,[4],43.9 µL/min/mg
same,microsomal CLint,[5],15.4 µL/min/mg
same,solubility thermodynamic,[6],4.58 µg/mL
same,Papp A→B,[7],21.1 ×10⁻⁶ cm/s
same,Papp B→A,[8],17.4 ×10⁻⁶ cm/s
same,efflux ratio,[9],0.82
same,AUC(0-inf),[10],573 ng·h/mL
same,half-life,[11],2.6 h
same,Tmax,[12],0.17 h
same,Cmax,[13],258 ng/mL
Cn1cc(-c2n[nH]c3cc(-c4ccccc4)ccc23)cn1,IC50,[1],12.3 µM
c1cnc2[nH]ccc2c1,IC50,[1],391 µM
N#Cc1cccc(-n2cc(-c3n[nH]c4cc(Cl)c(N[C@@H]5CCNC5)cc34)cn2)c1,IC50,[1],2.3 µM
same,IC50,[2],2.02 µM
same,GI50,SK-OV-3,0.496 µM
O=C1CC(c2ccccc2)=NN1,IC50,[1],13 µM
CN1CC[C@@H](Nc2cc3c(-c4cnn(C)c4)n[nH]c3cc2Cl)C1,IC50,[1],74 µM
same,IC50,[2],8.96 µM
Clc1ccnc2[nH]ccc12,IC50,[1],113 µM
CC(C)Nc1ccc2c(-c3cnn(C)c3)n[nH]c2c1,IC50,[1],46.6 µM
COc1ccc2[nH]c(C)cc2c1,IC50,[1],38 µM
FC(F)(F)c1cccc2[nH]ncc12,IC50,[1],184 µM
Cn1cc(-c2n[nH]c3ccc(Nc4ccccc4)cc23)cn1,IC50,[1],0.58 µM
Clc1ncnc2ccsc12,IC50,[1],302 µM
COc1ccc(-n2cc(-c3n[nH]c4cc(Cl)c(N[C@@H]5CCNC5)cc34)cn2)cc1,IC50,[1],0.3 µM
same,IC50,[2],0.374 µM
same,GI50,SK-OV-3,0.718 µM
same,inhibition,[14],Dose-Dependent Effect
same,inhibition,[15],Active
Nc1ccc2[nH]nc(Br)c2c1,IC50,[1],> 770 µM
Cn1cc(-c2n[nH]c3cc(Cl)c(N[C@@H]4CCNC4)cc23)cn1,IC50,[1],19 µM
same,IC50,[2],3.13 µM
same,GI50,SK-OV-3,8.62 µM
same,inhibition,[14],Dose-Dependent Effect
same,logD,[3],0.32
same,microsomal CLint,[4],9.38 µL/min/mg
same,microsomal CLint,[5],< 12 µL/min/mg
same,solubility thermodynamic,[6],297 µg/mL
same,Papp A→B,[7],0.39 ×10⁻⁶ cm/s
same,Papp B→A,[8],8.71 ×10⁻⁶ cm/s
same,efflux ratio,[9],22.6
same,inhibition,[15],Active
Nc1cccc2[nH]nc(Br)c12,IC50,[1],486 µM
COc1cc2[nH]ncc2cc1Br,IC50,[1],227 µM
Cn1cc(-c2n[nH]c3cc(Cl)c(N[C@@H]4CCN(C5COC5)C4)cc23)cn1,IC50,[1],320 µM
same,IC50,[2],24.7 µM
same,logD,[3],2.31
same,microsomal CLint,[4],15.2 µL/min/mg
same,microsomal CLint,[5],6.9 µL/min/mg
same,solubility thermodynamic,[6],245 µg/mL
same,Papp A→B,[7],13.7 ×10⁻⁶ cm/s
same,Papp B→A,[8],31.6 ×10⁻⁶ cm/s
same,efflux ratio,[9],2.31
same,AUC(0-inf),[10],396 ng·h/mL
same,half-life,[11],2 h
same,Tmax,[12],0.17 h
same,Cmax,[13],126 ng/mL
Cc1cnc2[nH]ccc2c1Cl,IC50,[1],20.2 µM
CN1CCC(Nc2ccc3[nH]nc(-c4cnn(C)c4)c3c2)CC1,IC50,[1],207 µM
c1cncc(-c2csc(-c3cccnc3)n2)c1,IC50,[1],305 µM
Fc1ccc(-n2cc(-c3n[nH]c4cc(Cl)c(N[C@@H]5CCNC5)cc34)cn2)cc1,IC50,[1],2.3 µM
same,IC50,[2],0.684 µM
COc1ccc(-n2cc(-c3n[nH]c4cc(Cl)c(N[C@H]5CNCC56CC6)cc34)cn2)cc1,IC50,[1],1 µM
same,IC50,[2],0.883 µM
same,GI50,SK-OV-3,0.0285 µM
same,logD,[3],> 5
same,microsomal CLint,[4],5.14 µL/min/mg
same,microsomal CLint,[5],83 µL/min/mg
same,solubility thermodynamic,[6],5.55 µg/mL
same,Papp A→B,[7],4.05 ×10⁻⁶ cm/s
same,Papp B→A,[8],5.24 ×10⁻⁶ cm/s
same,efflux ratio,[9],1.3
same,AUC(0-inf),[10],129 ng·h/mL
same,half-life,[11],2.16 h
same,Tmax,[12],0.25 h
same,Cmax,[13],53 ng/mL
N#Cc1ccc(-n2cc(-c3n[nH]c4cc(Cl)c(N[C@@H]5CCNC5)cc34)cn2)cc1,IC50,[1],0.7 µM
same,IC50,[2],0.88 µM
same,GI50,SK-OV-3,0.0529 µM
Brc1c[nH]c2ncccc12,IC50,[1],22.8 µM
Cn1cc(-c2n[nH]c3cc(Br)ccc23)cn1,IC50,[1],0.95 µM
CNC1CCN(c2ccc3[nH]nc(-c4cnn(C)c4)c3c2)C1 (stereo not given),IC50,[1],432 µM
Brc1cccc2[nH]ncc12,IC50,[1],178 µM
Cn1cc(-c2n[nH]c3ccc(N[C@H]4CCNC4)cc23)cn1,IC50,[1],239 µM
same,IC50,[2],> 50 µM
Cn1cc(-c2n[nH]c3cc(Nc4ccccc4)ccc23)cn1,IC50,[1],219 µM
Cn1cc(-c2nn(C)c3cc(N)ccc23)cn1,IC50,[1],> 384 µM
CN1CCC(CNc2ccc3[nH]nc(-c4cnn(C)c4)c3c2)CC1,IC50,[1],1850 µM
Nc1ccc2c(-c3cccnc3)n[nH]c2c1,IC50,[1],28.4 µM
Cc1ccc(C)n1-c1ccsc1C(=O)O,IC50,[1],70 µM
Cn1cc(-c2n[nH]c3cc(Cl)c(Br)cc23)cn1,IC50,[1],0.85 µM
Cn1cc(-c2n[nH]c3ccc(N[C@@H]4CCNC4)cc23)cn1,IC50,[1],37 µM
same,IC50,[2],20.7 µM
Nc1ccc(Br)c2ccncc12,IC50,[1],57 µM
